Blank lines part the entries; values can stand above or below the compound they belong to. Active and inactive are the calls of the source. The rule behind the calls is not given here.
Tests used:
[1] = Metabolic stability in C57BL/6 mouse liver microsome assessed as half life; format: ADME; conditions: liver microsomes
Collagenase 3 = Collagenase 3 (Homo sapiens, UniProt P45452); experiment: Inhibition of human recombinant MMP13
in vitro [2] = conditions: rat, liver microsomes
in vitro [3] = conditions: human, liver microsomes
[4] = target: Matrix metalloproteinase-9 (Homo sapiens, UniProt P14780); experiment: Inhibition of human MMP9
[5] = target: Matrix metalloproteinase-14 (Homo sapiens, UniProt P50281); experiment: Inhibition of human MMP14
[6] = target: Disintegrin and metalloproteinase domain-containing protein 17 (Homo sapiens, UniProt P78536); experiment: Inhibition of human TACE
[7] = target: A disintegrin and metalloproteinase with thrombospondin motifs 4 (Homo sapiens, UniProt O75173); experiment: Inhibition of human Aggrecanase 1
[8] = target: A disintegrin and metalloproteinase with thrombospondin motifs 5 (Homo sapiens, UniProt Q9UNA0); experiment: Inhibition of human Aggrecanase 2
[9] = target: Voltage-gated inwardly rectifying potassium channel KCNH2 (Homo sapiens, UniProt Q12809); experiment: Inhibition of human ERG at 10 uM by ion works assay
Mus musculus [10] = experiment: Inhibition of human recombinant MMP12-induced ear-edema in C57BL/6 mouse assessed as decrease in ear edema at 30 mg/kg, po bid administered 2 hrs post challenge; format: functional; conditions: C57BL/6, 2 h
Mus musculus [11] = experiment: Inhibition of human recombinant MMP12-induced ear-edema in C57BL/6 mouse assessed as decrease in ear edema at 10 mg/kg, po bid administered 2 hrs post challenge; format: functional; conditions: C57BL/6, 2 h
Mus musculus [12] = experiment: Inhibition of human recombinant MMP12-induced ear-edema in C57BL/6 mouse assessed as decrease in ear edema at 3 mg/kg, po bid administered 2 hrs post challenge; format: functional; conditions: C57BL/6, 2 h
Ovis aries [13] = experiment: Inhibition of carbachol-induced airway hyper-responsiveness in Ascaris suum challenged sheep asthma model at 10 mg/kg, po; format: functional, organism-based; parameters: dose 10 mg/kg
Ovis aries [14] = experiment: Inhibition of EAR phase of bronchoconstrictive in Ascaris suum challenged sheep asthma model at 10 mg/kg, po twice the day prior to allergen challenge and third dose 1 hr prior to allergen challenge; format: functional, organism-based; parameters: dose 10 mg/kg; conditions: Lung
Cytochrome P450 2D6 = Cytochrome P450 2D6 (Homo sapiens, UniProt P10635); experiment: Inhibition of CYP2D6; format: ADME
Cytochrome P450 2C9 = Cytochrome P450 2C9 (Homo sapiens, UniProt P11712); experiment: Inhibition of CYP2C9; format: ADME
Cytochrome P450 3A4 = Cytochrome P450 3A4 (Homo sapiens, UniProt P08684); experiment: Inhibition of CYP3A4; format: ADME
[15] = Volume of distribution at steady state in C57BL/6 mouse at 2 mg/kg, iv; format: ADME, organism-based; parameters: dose 2 mg/kg, route intravenous; conditions: in vivo, read-out: Vdss
[16] = Clearance in C57BL/6 mouse at 2 mg/kg, iv; format: ADME, organism-based; parameters: dose 2 mg/kg, route intravenous; conditions: in vivo
[17] = Half life in C57BL/6 mouse at 10 mg/kg, po; format: ADME, organism-based; parameters: dose 10 mg/kg, route oral; conditions: in vivo
[18] = Cmax in C57BL/6 mouse at 10 mg/kg, po; format: ADME, organism-based; parameters: dose 10 mg/kg, route oral; conditions: in vivo
[19] = Oral bioavailability in C57BL/6 mouse at 10 mg/kg; format: ADME, organism-based; conditions: in vivo
[20] = target: Macrophage metalloelastase (Mus musculus, UniProt P34960); experiment: Inhibition of mouse MMP12
[21] = target: Macrophage metalloelastase (Rattus norvegicus, UniProt Q63341); experiment: Inhibition of rat MMP12
[22] = Inhibition of sheep MMP12; parameters: species or system Ovis aries
Interstitial collagenase = Interstitial collagenase (Homo sapiens, UniProt P03956); experiment: Inhibition of human MMP1
[23] = target: 72 kDa type IV collagenase (Homo sapiens, UniProt P08253); experiment: Inhibition of human MMP2
Stromelysin-1 = Stromelysin-1 (Homo sapiens, UniProt P08254); experiment: Inhibition of human MMP3
Matrilysin = Matrilysin (Homo sapiens, UniProt P09237); experiment: Inhibition of human MMP7
Neutrophil collagenase = Neutrophil collagenase (Homo sapiens, UniProt P22894); experiment: Inhibition of human MMP8
[24] = Half life in C57BL/6 mouse at 30 mg/kg, po; format: ADME, organism-based; parameters: dose 30 mg/kg, route oral; conditions: in vivo
[25] = Cmax in C57BL/6 mouse at 30 mg/kg, po; format: ADME, organism-based; parameters: dose 30 mg/kg, route oral; conditions: in vivo
[26] = Oral bioavailability in C57BL/6 mouse at 30 mg/kg; format: ADME, organism-based; conditions: in vivo
[27] = target: Macrophage metalloelastase (Homo sapiens, UniProt P39900)
Macrophage metalloelastase (Homo sapiens, UniProt P39900), sequence (P39900 whole entry): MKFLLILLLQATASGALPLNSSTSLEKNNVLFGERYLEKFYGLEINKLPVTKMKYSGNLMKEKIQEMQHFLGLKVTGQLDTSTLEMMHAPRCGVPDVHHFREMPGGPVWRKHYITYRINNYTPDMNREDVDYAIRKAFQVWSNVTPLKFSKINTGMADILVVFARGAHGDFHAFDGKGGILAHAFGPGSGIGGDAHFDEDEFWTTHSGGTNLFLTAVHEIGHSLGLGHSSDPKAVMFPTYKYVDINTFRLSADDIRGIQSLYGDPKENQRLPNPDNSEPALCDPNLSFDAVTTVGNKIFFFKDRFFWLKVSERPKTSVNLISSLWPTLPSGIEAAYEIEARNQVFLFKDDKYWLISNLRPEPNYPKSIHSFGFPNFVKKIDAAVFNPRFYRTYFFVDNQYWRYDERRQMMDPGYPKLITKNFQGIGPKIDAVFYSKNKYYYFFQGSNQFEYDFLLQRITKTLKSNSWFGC

Neutrophil collagenase, sequence (P22894 whole entry): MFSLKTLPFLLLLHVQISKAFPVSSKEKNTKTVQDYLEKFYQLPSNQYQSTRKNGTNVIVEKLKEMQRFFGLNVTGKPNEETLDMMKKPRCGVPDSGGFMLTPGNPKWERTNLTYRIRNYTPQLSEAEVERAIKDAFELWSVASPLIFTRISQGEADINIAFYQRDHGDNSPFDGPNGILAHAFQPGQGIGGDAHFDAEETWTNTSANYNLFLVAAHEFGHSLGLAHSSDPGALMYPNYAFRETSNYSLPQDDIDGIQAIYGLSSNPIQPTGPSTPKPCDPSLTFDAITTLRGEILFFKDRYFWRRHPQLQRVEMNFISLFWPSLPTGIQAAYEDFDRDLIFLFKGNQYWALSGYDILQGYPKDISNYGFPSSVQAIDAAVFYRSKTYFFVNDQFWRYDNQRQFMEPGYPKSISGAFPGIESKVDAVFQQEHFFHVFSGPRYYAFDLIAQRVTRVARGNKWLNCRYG
Matrilysin, sequence (P09237 whole entry): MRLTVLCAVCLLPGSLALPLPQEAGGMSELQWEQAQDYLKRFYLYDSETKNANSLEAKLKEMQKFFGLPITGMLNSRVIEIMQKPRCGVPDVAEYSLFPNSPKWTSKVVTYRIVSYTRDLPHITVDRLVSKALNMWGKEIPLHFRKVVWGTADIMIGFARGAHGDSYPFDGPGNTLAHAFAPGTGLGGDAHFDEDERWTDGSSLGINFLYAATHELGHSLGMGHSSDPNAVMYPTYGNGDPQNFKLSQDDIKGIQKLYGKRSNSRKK
Cytochrome P450 2D6, sequence (P10635 whole entry): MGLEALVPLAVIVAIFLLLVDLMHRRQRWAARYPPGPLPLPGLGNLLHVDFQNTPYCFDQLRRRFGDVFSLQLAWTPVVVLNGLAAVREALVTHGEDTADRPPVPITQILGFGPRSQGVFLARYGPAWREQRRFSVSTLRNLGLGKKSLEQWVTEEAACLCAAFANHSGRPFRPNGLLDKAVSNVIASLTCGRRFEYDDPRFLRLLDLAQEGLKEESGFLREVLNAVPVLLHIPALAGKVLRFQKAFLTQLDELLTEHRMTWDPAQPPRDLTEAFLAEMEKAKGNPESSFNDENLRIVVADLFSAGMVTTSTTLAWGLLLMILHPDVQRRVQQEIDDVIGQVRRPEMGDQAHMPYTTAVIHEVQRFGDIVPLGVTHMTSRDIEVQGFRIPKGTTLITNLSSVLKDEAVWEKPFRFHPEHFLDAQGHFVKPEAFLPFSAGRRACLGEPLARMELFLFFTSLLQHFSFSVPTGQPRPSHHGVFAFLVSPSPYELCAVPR
Cytochrome P450 3A4, sequence (P08684 whole entry): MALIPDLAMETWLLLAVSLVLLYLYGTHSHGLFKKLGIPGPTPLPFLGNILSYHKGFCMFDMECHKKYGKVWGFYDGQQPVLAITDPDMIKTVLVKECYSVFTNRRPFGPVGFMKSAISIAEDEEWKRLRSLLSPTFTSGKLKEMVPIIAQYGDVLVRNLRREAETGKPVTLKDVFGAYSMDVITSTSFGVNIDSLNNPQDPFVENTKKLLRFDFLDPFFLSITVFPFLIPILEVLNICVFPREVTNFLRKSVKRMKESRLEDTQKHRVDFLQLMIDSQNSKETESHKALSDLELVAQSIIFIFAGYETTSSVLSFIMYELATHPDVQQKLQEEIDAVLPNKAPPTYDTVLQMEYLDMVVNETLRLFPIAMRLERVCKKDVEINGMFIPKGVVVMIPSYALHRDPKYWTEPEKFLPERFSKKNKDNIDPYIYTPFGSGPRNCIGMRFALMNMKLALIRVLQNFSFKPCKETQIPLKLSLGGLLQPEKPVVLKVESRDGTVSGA
Stromelysin-1, sequence (P08254 whole entry): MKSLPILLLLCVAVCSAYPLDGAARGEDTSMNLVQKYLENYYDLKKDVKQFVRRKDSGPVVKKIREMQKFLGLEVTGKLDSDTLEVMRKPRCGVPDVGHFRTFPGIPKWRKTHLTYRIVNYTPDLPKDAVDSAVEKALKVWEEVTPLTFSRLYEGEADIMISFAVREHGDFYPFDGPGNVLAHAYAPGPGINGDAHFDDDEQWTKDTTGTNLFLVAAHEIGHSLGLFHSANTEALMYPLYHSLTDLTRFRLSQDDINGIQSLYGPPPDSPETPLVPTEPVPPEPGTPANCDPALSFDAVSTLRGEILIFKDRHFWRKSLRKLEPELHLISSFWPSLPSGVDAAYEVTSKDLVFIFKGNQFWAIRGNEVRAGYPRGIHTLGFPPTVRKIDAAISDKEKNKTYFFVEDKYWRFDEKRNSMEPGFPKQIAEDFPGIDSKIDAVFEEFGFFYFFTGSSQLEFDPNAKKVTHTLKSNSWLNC
72 kDa type IV collagenase, sequence (P08253 whole entry): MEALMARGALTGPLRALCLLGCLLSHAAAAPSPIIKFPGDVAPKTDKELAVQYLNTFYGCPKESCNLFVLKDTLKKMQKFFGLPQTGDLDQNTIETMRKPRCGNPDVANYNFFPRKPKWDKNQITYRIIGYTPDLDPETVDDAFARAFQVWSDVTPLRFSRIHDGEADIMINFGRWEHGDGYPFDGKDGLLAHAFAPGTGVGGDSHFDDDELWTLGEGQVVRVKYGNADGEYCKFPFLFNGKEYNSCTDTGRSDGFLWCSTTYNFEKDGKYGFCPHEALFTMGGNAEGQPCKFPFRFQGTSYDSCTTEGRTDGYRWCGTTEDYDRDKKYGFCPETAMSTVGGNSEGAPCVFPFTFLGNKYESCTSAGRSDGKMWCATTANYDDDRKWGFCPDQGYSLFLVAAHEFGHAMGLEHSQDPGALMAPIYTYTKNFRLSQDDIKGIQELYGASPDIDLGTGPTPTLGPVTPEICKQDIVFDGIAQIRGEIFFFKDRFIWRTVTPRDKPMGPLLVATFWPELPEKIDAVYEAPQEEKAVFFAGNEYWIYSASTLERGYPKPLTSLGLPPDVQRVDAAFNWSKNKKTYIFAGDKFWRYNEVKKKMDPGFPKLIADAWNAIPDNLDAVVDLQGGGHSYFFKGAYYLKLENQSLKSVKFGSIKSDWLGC
Disintegrin and metalloproteinase domain-containing protein 17, sequence (P78536 whole entry, the tested form may be a part): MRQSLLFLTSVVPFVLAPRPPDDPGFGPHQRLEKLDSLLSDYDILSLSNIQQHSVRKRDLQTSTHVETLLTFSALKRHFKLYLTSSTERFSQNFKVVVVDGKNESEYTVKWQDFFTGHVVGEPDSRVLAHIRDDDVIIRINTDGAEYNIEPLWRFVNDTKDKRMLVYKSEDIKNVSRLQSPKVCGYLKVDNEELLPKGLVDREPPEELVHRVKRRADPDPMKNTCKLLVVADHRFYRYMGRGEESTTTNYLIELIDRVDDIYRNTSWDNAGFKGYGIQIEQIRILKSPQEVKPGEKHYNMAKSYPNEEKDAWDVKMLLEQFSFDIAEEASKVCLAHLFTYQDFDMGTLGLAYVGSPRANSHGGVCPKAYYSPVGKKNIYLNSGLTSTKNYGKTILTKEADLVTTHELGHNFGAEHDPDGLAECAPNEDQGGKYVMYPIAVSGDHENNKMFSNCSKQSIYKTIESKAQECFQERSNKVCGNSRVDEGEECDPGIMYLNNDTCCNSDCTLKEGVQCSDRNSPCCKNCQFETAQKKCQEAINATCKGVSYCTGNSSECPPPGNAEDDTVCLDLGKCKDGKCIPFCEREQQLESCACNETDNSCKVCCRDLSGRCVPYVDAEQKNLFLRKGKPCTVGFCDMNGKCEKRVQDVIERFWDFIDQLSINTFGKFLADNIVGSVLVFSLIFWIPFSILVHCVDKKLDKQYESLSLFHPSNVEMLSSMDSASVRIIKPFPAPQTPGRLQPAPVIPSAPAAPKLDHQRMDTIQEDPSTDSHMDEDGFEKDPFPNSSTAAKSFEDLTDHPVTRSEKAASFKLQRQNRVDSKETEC
Matrix metalloproteinase-9, sequence (P14780 whole entry): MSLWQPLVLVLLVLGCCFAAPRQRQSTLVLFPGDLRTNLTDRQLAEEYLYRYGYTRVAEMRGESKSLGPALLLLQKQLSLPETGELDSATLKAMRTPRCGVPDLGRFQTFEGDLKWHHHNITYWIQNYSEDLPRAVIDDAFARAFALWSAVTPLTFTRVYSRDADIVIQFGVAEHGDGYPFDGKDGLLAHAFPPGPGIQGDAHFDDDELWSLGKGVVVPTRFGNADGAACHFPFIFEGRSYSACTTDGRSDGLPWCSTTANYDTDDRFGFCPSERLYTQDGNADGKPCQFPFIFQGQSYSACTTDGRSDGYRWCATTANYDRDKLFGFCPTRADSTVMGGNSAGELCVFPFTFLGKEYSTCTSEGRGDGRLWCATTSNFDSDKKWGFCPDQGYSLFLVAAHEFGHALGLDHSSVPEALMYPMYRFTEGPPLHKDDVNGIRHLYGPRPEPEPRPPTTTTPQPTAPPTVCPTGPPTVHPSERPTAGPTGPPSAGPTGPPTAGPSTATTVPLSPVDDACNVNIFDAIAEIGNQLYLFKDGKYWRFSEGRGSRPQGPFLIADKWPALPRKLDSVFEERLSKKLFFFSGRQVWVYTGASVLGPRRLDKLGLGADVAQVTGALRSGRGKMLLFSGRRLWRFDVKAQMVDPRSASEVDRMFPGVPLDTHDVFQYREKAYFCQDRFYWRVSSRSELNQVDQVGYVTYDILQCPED

SMILES: CCOC(=O)Nc1ccc2oc3cc(S(=O)(=O)N[C@H](C(=O)O)C(C)C)ccc3c2c1
half-life [1]: > 30 min
half-life (in vitro [2]): > 30 min
half-life (in vitro [3]): > 30 min

SMILES: CC(C)[C@H](NS(=O)(=O)c1ccc2c(c1)oc1cc(N)ccc12)C(=O)O
half-life [1]: > 30 min
IC50 (Collagenase 3): 1090 nM
half-life (in vitro [2]): > 30 min
half-life (in vitro [3]): > 30 min

SMILES: CC(C)[C@H](NS(=O)(=O)c1ccc2c(c1)oc1ccc(N3CCOC3=O)cc12)C(=O)O
IC50 [4]: 318 nM
IC50 [5]: 2250 nM
IC50 [6]: 40000 nM
IC50 [7]: 18000 nM
IC50 [8]: 22600 nM
half-life [1]: > 30 min
inhibition (INH) [9]: Not Active
inhibition in vivo at 30 mg/kg (Mus musculus [10]): 40.3%
inhibition in vivo at 10 mg/kg (Mus musculus [11]): 35.1%
inhibition in vivo at 3 mg/kg (Mus musculus [12]): 25.2%
inhibition (Ovis aries [13]): Active
inhibition (Ovis aries [14]): Active
inhibition (INH) (Cytochrome P450 2D6): Not Active
inhibition (INH) (Cytochrome P450 2C9): Not Active
inhibition (INH) (Cytochrome P450 3A4): Not Active
IC50 (Collagenase 3): 106 nM
Vd [15]: 0.8 L/kg
clearance [16]: 18 mL/min/kg
half-life [17]: 186 min
Cmax [18]: 456 ng/mL
bioavailability [19]: 17%
IC50 [20]: 27 nM
IC50 [21]: 72 nM
IC50 [22]: 2 nM
IC50 (Interstitial collagenase): 5460 nM
IC50 [23]: 66 nM
IC50 (Stromelysin-1): 300 nM
IC50 (Matrilysin): 7830 nM
IC50 (Neutrophil collagenase): 37 nM
half-life (in vitro [2]): > 30 min
half-life (in vitro [3]): > 30 min

SMILES: COC(=O)Nc1ccc2sc3cc(S(=O)(=O)N[C@H](C(=O)O)C(C)C)ccc3c2c1
half-life [1]: > 30 min
IC50 (Collagenase 3): 65 nM
Vd [15]: 1.7 L/kg
clearance [16]: 31.2 mL/min/kg
half-life [24]: 186 min
Cmax [25]: 1820 ng/mL
bioavailability [26]: 34%
half-life (in vitro [2]): > 30 min
half-life (in vitro [3]): > 30 min

SMILES: CC(C)[C@H](NS(=O)(=O)c1ccc2c(c1)oc1cc(N3CCOC3=O)ccc12)C(=O)O
half-life [1]: > 30 min
IC50 (Collagenase 3): 370 nM
half-life (in vitro [2]): > 30 min
half-life (in vitro [3]): > 30 min

SMILES: CC(C)[C@H](NS(=O)(=O)c1ccc2c(c1)sc1cc(N3CCOC3=O)ccc12)C(=O)O
half-life [1]: > 30 min
IC50 (Collagenase 3): 140 nM
half-life (in vitro [2]): > 30 min
half-life (in vitro [3]): > 30 min

SMILES: CC(C)[C@H](NS(=O)(=O)c1ccc2c(c1)sc1cc(NC(=O)Oc3ccc(F)cc3)ccc12)C(=O)O
half-life [1]: > 30 min
IC50 (Collagenase 3): 217 nM
half-life (in vitro [2]): > 30 min
half-life (in vitro [3]): > 30 min

Next, values leading:

half-life [1]: > 30 min
IC50 (Collagenase 3): 200 nM
half-life (in vitro [2]): > 30 min
half-life (in vitro [3]): > 30 min
SMILES: CC(C)[C@H](NS(=O)(=O)c1ccc2c(c1)sc1cc(NC(=O)NCc3ccccc3)ccc12)C(=O)O

half-life [1]: > 30 min
IC50 (Collagenase 3): 225 nM
half-life (in vitro [2]): > 30 min
half-life (in vitro [3]): > 30 min
SMILES: CC(C)[C@H](NS(=O)(=O)c1ccc2c(c1)sc1cc(NC(=O)Oc3ccccc3)ccc12)C(=O)O

half-life [1]: > 30 min
IC50 (Collagenase 3): 147 nM
half-life (in vitro [2]): > 30 min
half-life (in vitro [3]): > 30 min
SMILES: CC(C)OC(=O)Nc1ccc2c(c1)sc1cc(S(=O)(=O)N[C@H](C(=O)O)C(C)C)ccc12

half-life [1]: > 30 min
IC50 (Collagenase 3): 23 nM
half-life (in vitro [2]): > 30 min
half-life (in vitro [3]): > 30 min
SMILES: C#CCCOC(=O)Nc1ccc2c(c1)sc1cc(S(=O)(=O)N[C@H](C(=O)O)C(C)C)ccc12

half-life [1]: > 30 min
IC50 (Collagenase 3): > 1000 nM
IC50 [27]: > 1000 nM
half-life (in vitro [2]): > 30 min
half-life (in vitro [3]): > 30 min
SMILES: CC(C)[C@H](NS(=O)(=O)c1ccc2c(c1)sc1cc(NC(=O)NC3CCCC3)ccc12)C(=O)O

half-life [1]: > 30 min
IC50 (Collagenase 3): 456 nM
half-life (in vitro [2]): > 30 min
half-life (in vitro [3]): > 30 min
SMILES: CC(C)[C@H](NS(=O)(=O)c1ccc2c(c1)sc1cc(NC(=O)NCCc3cccs3)ccc12)C(=O)O

half-life [1]: > 30 min
IC50 (Collagenase 3): 56 nM
half-life (in vitro [2]): > 30 min
half-life (in vitro [3]): > 30 min
SMILES: CCOC(=O)Nc1ccc2c(c1)sc1cc(S(=O)(=O)N[C@H](C(=O)O)C(C)C)ccc12

half-life [1]: > 30 min
IC50 (Collagenase 3): 40 nM
half-life (in vitro [2]): > 30 min
half-life (in vitro [3]): > 30 min
SMILES: CC(C)[C@H](NS(=O)(=O)c1ccc2c(c1)sc1cc(NC(=O)OCCS(C)(=O)=O)ccc12)C(=O)O

half-life [1]: > 30 min
IC50 (Collagenase 3): 1290 nM
half-life (in vitro [2]): > 30 min
half-life (in vitro [3]): > 30 min
SMILES: CC(C)[C@@H](NS(=O)(=O)c1ccc2c(c1)sc1cc(NC(=O)Nc3ccccc3)ccc12)C(=O)O

IC50 (Collagenase 3): 277 nM
SMILES: CC(C)[C@@H](NS(=O)(=O)c1ccc2c(c1)sc1ccc(NS(C)(=O)=O)cc12)C(=O)O

half-life [1]: > 30 min
IC50 (Collagenase 3): > 1000 nM
half-life (in vitro [2]): > 30 min
half-life (in vitro [3]): > 30 min
SMILES: CC(C)[C@H](NS(=O)(=O)c1ccc2c(c1)sc1cc(N)ccc12)C(=O)O
